Results as given in patent US12152060B2, “Interleukin-2 variants and methods of uses thereof” (Cugene Inc, priority 2018, dated 2024).
“Also recorded” adds a separate entry of the source.

Experiments:
[1] = tested on: delayed-type hypersensitivity (DTH) mouse model; test: KLH-induced delayed-type hypersensitivity (DTH) mouse model, ear thickness; type: in vivo
Experimental: The ability of Treg cells induced by IL-2 variants to suppress T cell antigen-driven inflammation in vivo was assessed in a model of delayed-type hypersensitivity (DTH). Female Balb/C mice (7-week old) were acclimated in house for 7 days and randomized into groups. Subcutaneous administration of vehicle (PBS), P-0511 at either 0.1 mg/kg or 0.3 mg/kg was initiated on day-2 and was given either once every 3 days (Q3D) for three injections or once every 5 days (Q5D) for two injections. Mice were then sensitized with a subcutaneous administration of 100 μg keyhole limpet hemocyanin (KLH) in 200 μl saline on day 0. For Q3D dosing, two more subcutaneous injections of PBS or P-0511 (0.1 or 0.3 mg/kg) were administered on days 1 and 4; for Q5D dosing, one additional s.c. injection of PBS, 0.1 or 0.3 mg/kg P-0511 was administered on day 3. Mice received an intradermal challenge of KLH (5 μg in 10 μl saline) in right ear on day 5. Right ear thickness was measured using a caliper on day 5 prior KLH challenge and daily from day 6 to day 8 corresponding to 24 h, 48h, and 72 h post KLH challenge. One group of mice also received 5 mg/kg daily i.p. treatment of dexamethasone from day 5 to day 8 as a positive control.
Kinetics of the DTH response using the change in ear thickness relative to baseline values (Δ ear thickness) at various times after KLH challenge was illustrated in FIG. 23.
In a separate study, dose-dependent response of P-0511 (0.1, 0.3 and 1 mg/kg, Q5D) on suppression of KLH-induced DTH was determined and compared with Benchmark-1 (0.3 mg/kg, Q5D).

[2] = tested on: regulatory T cells (CD4+CD25+FoxP3+ T cells), effector T cells and NK cells; test: Treg versus effector T and NK cell proliferation and expansion in mice after a single subcutaneous injection; type: in vivo, mouse; conditions: 0.3 mg/kg s.c. single dose, C57/BL6 mice; for Treg cell proliferation and expansion (Ki67 positive Treg, % Treg over CD4+ T cells or lymphocytes): days 3, 5, 7
Experimental: IL-2 variant Fc fusion proteins were administered to mice and their ability to preferentially proliferate and expand regulatory T cells (CD4+CD25+FoxP3+ T cells) over effector T cells and NK cells were determined in vivo.
Female C57/BL6 mice (7-week old) were received from Charles River Laboratory and acclimated in house for at least 7 days before the study. Vehicle (PBS), 0.3 mg/kg of each test compounds, or IL-2 benchmark compounds were subcutaneously administered to mice on day 0. Peripheral blood samples were collected into heparin-treated tubes on days 3, 5 and 7 post-treatment. Each group contained 6 mice and baseline blood was collected 2 days prior to the treatment (day-2). After red blood cell lysis, total viable mononuclear blood cells were counted by trypan blue dead cell exclusion method and proceeded to intracellular staining for immune cell phenotype and Ki67 proliferation markers using flow cytometric analysis. Cells were stained separately with two panels of antibodies as listed: 1) anti-mouse Foxp3-FITC, Ki67-PE, anti-mouse CD25-APC and anti-mouse CD4-Percpcy5.5 (1:50 dilution) for CD4+T-regulatory cells (Treg); 2) anti-mouse CD3-FITC, Ki67-PE, anti-mouse CD335-APC and anti-mouse CD8-Percpcy5.5 (1:50 dilution) for CD8+T and NK cells.

[3] = tested on: STAT5 phosphorylation in CD4+ Treg cells (CD4+/Foxp3+/CD25high); test: STAT5 phosphorylation in CD4+ Treg cells, human PBMC assay by FACS; type: cell-based; conditions: for window for selective activation of Treg cells over CD4+ Tconv cells (in words): pSTAT5, Treg versus Tconv; for pSTAT5 activity profile compared with benchmark molecules (in words): Treg and CD4+ Tconv cells
Text: Single amino acid substitutions were introduced to IL-2 at positions corresponding to amino acids interacting with receptor subunit(s) β or γ or By. These substitutions were aimed to reduce IL-2 signaling capacity through the intermediate affinity IL-2Rβγ complex and confer signaling specificity from the high affinity IL-2Rαβγ. IL-2 variants containing single amino acid substitutions were examined for their ability to differentially stimulate STAT5 phosphorylation in CD4 positive Treg and Tconv cells. STAT5 is known to be involved in the downstream signaling cascade upon IL-2 binding to the transmembrane IL-2 receptors. The phosphorylation of STAT5 in defined lymphocyte subpopulations was measured using fresh human peripheral blood mononuclear cells (PBMC) and the forkhead transcription factor FOXP3 was used to identify the Treg population in FACS analysis.
Briefly, human PBMC were isolated by Ficoll-Hypaque centrifugation from the buffy coat of a healthy donor. PBMC were starved in serum-free MACS buffer at 4° C. for 1 hour. 2×10^5 PBMC were then treated with serial dilutions of test compounds for 30 min at 37° C. Cells were fixed and permeabilized with Foxp3/Transcription Factor Staining Buffer Set (EBIO) by incubating with 1× Foxp3 fixation/permeabilization working solution for 30 minutes and washing with 1× permeabilization buffer. Cells were additionally fixed with Cytofix buffer and permeabilized with Perm Buffer III (BD Biosciences) and then washed. After blocking Fc receptors by adding human TruStain™ FcX (1:50 dilution), cells were stained with a mixture of anti-CD25-PE, anti-FOXP3-APC, anti-pSTAT5-FITC, and anti-CD4-PerCP-Cy5.5 antibodies at concentrations recommended by the manufacturer for 45 minutes at room temperature. Cells were collected by centrifugation, washed, resuspended in FACS buffer, and analyzed by flow cytometry. The flow cytometry data was gated into CD4+/Foxp3+/CD25^high and CD4+/Foxp3−/CD25^low groups for the Treg and CD4 conventional T cell subsets, respectively. Data are expressed as a percent of pStat5 positive cells in gated population.

[4] = tested on: STAT5 phosphorylation in CD4+/Foxp3+/CD25+ Treg, CD4+/Foxp3-/CD25+ CD4 effector and CD4+/Foxp3-/CD25- CD4 naive T cell subsets; test: STAT5 phosphorylation in three CD4+ T cell subsets, human PBMC; type: cell-based; conditions: FIG. 9
Experimental: After human PBMC Cells were treated with serial dilutions of test compounds, fixed and permeabilized, washed, and stained with a mixture of anti-CD25-PE, anti-FOXP3-APC, anti-pSTAT5-FITC, and anti-CD4-PerCP-Cy5.5 antibodies, the flow cytometry analysis was gated into CD4+/Foxp3+/CD25+, CD4+/Foxp3−/CD25+, CD4+/Foxp3−/CD25− groups for the Treg, CD4 effector, and CD4 naive T cell subsets, respectively. Data are expressed as a percent of pSTAT5 positive cells in gated population and illustrated in FIG. 9.

[5] = tested on: Treg cells in blood; test: Pharmacodynamics study in mice following repeated administration (Q3D); type: in vivo, mouse; conditions: 0.3 mg/kg s.c. Q3D x3; compared to P-0531 and Benchmark-1
Experimental: Female Balb/C mice (7-week old) were acclimated in house for 5-7 days before the study. Vehicle (PBS), 0.3 mg/kg of P-0511, P-0512, P-0531, or Benchmark-1 compound were subcutaneously administered to mice (n=5/group) on days 0, 3, and 6. On days 3 and 9, three days after the first injection and multiple (3) injections, respectively, peripheral blood was collected. Based on earlier in vivo experiments, Treg cell activation, proliferation, and expansion were expected to peak on day 3, and thus three days post injection was selected for data collection and analysis. Changes in blood lymphocyte activation, proliferation, and expansion were measured by flow cytometry. P-0531 is the S125I equivalent of the wild type IL-2 fusion protein. The Benchmark-1 contains V91K mutation.

Question: How did the “inhibition of KLH-induced inflammatory response (ear swelling)” value ([1]; 5 mg/kg daily i.p., 4 consecutive doses, 72 hours after KLH challenge) turn out when `C[C@@H]1C[C@H]2[C@@H]3CCC4=CC(=O)C=C[C@]4(C)[C@@]3(F)[C@@H](O)C[C@]2(C)[C@@]1(O)C(=O)CO` [dexamethasone, reference compound] was run?
Answer: ~85%

Question: What does the source list for “Benchmark-1: benchmark Fc-IL-2 variant fusion protein containing V91K mutation; SEQ ID NO: 191 [reference compound]”?
Answer: Ki67 stimulation on CD8 T cells and NK cells [2]: strong Ki67 stimulation; Treg cell proliferation and expansion (Ki67 positive Treg, % Treg over CD4+ T cells or lymphocytes) [2]: highest potency; inhibition of ear inflammation (KLH-induced DTH), separate study ([1]; 0.3 mg/kg, Q5D): mild inhibition of ear swelling

Question: For “Benchmark-3: benchmark Fc-IL-2 variant fusion protein containing N88D; SEQ ID NO: 192 [reference compound]”, which “Ki67 stimulation on CD8 T cells and NK cells” value [2] is on record?
Answer: low effects

Question: What about the “Treg cell proliferation and expansion (Ki67 positive Treg, % Treg over CD4+ T cells or lymphocytes)” value [2] of the same molecule?
Answer: not efficacious

Question: How did the “window for selective activation of Treg cells over CD4+ Tconv cells (in words)” value (from here on “window for selective activation”) [3] turn out when “P-0303: Fc fusion protein of IL-2 variant Q126E; SEQ ID NO: 88” was run?
Answer: modestly improved selective window

Question: Which “window for selective activation” value [3] does the source give for “P-0363: Fc fusion protein of IL-2 variant D20T; SEQ ID NO: 72” here?
Answer: some or significant biased selective window

Question: “P-0372: Fc fusion protein of IL-2 variant L19Y; SEQ ID NO: 79” was tested. Which “window for selective activation” value [3] did it give?
Answer: modestly improved selective window

Question: With “P-0373: Fc fusion protein of IL-2 variant L19N; SEQ ID NO: 80” as the molecule, how does the “window for selective activation” value [3] read?
Answer: wide window for selective targeting of Treg subset; also recorded: some or significant biased selective window

Question: How did the “window for selective activation” value [3] turn out when “P-0424: Fc fusion protein of IL-2 variant L19H; SEQ ID NO: 148” was run?
Answer: selective activation of Treg cells over CD4+ Tconv cells

Question: With “P-0425: Fc fusion protein of IL-2 variant L19D; SEQ ID NO: 149” as the molecule, how does the “window for selective activation” value [3] read?
Answer: wide window for selective targeting of Treg subset

Question: Which “pSTAT5 activity profile compared with benchmark molecules (in words)” value [3] does the source give for “P-0447: Fc fusion protein of IL-2 variant L19H/Q126E; SEQ ID NO: 168” here?
Answer: on par with Benchmark-3

Question: For “P-0448: Fc fusion protein of IL-2 variant L19Q/Q126E; SEQ ID NO: 169”, which “pSTAT5 activity profile compared with benchmark molecules (in words)” value [3] is on record?
Answer: on par with Benchmark-3

Question: For “P-0449: Fc fusion protein of IL-2 variant L19S/Q126E; SEQ ID NO: 170”, which “pSTAT5 activity profile compared with benchmark molecules (in words)” value [3] is on record?
Answer: on par with Benchmark-3

Question: With “P-0491: Fc fusion protein of IL-2 variant L19H/S125I; SEQ ID NO: 185” as the molecule, how does the “window for selective activation” value [3] read?
Answer: without altering Treg selectivity

Question: Which “pSTAT5 potency and selectivity in Treg, Teff and naive CD4 T cell subsets (in words)” value [4] does the source give for “P-0512: Fc fusion protein of IL-2 variant L19H/S125I/Q126K; SEQ ID NO: 199” here?
Answer: comparable activity profile to Benchmark-1

Question: What about the “Ki67 stimulation on CD8 T cells and NK cells” value [2] of the same molecule?
Answer: mild Ki67 stimulation

Question: And the “expansion of CD4+ Tconv cells, CD8 T cells or NK cells” value [2]?
Answer: No significant expansion

Question: And the “Treg cell proliferation and expansion (Ki67 positive Treg, % Treg over CD4+ T cells or lymphocytes)” value [2]?
Answer: stronger in vivo efficacy

Question: What about the “Treg cell counts, fold changes relative to PBS and Treg/Tconv ratio” value [5] of the same molecule?
Answer: superior capabilities to sustain Treg pool

Question: “P-0514: Fc fusion protein of IL-2 variant L19Q/S125I/Q126E; SEQ ID NO: 201” was tested. Which “expansion of CD4+ Tconv cells, CD8 T cells or NK cells” value [2] did it give?
Answer: No significant expansion

Question: What about the “Treg cell proliferation and expansion (Ki67 positive Treg, % Treg over CD4+ T cells or lymphocytes)” value [2] of the same molecule?
Answer: stronger in vivo efficacy

Question: “P-0531: Fc fusion protein of IL-2 variant S125I, the S125I equivalent of wild type P-0250; SEQ ID NO: 162” was tested. Which “window for selective activation” value [3] did it give?
Answer: without altering Treg selectivity
